# Counter-ions that a name gives are not always drawn.
# Assay: in vitro
# Conditions: rat, gh3-tre-luc cells
SMILES,CC50 at 24 h (AC50 (uM) modified / 1000) [µM],other results
CC(C)NCC(O)c1ccc(NS(C)(=O)=O)cc1 (stereo not shown) [Sotalol hydrochloride],> 90,–
Cc1c(COC(=O)[C@@H]2[C@H](/C=C(\Cl)C(F)(F)F)C2(C)C)cccc1-c1ccccc1 (racemic) [Bifenthrin],> 90,–
CC(=O)Nc1cc(S(=O)(=O)O)cc2cc(S(=O)(=O)O)c(N=Nc3ccccc3)c(O)c12 [C.I. Acid Red 1],53.1,–
C[C@@H]1CN([C@H]2CC[C@](C#N)(c3ccc(F)cc3)CC2)CC[C@]1(C(=O)O)c1ccccc1 [Levocabastine hydrochloride],> 20,–
CCOc1ccc(NC(C)=O)cc1 [Phenacetin],> 50,–
"CC(C)(C1CCC(O)CC1)C1CCC(O)CC1 (stereo not shown) [4,4'-Propane-2,2-diyldicyclohexanol]",> 90,–
"O=S(=O)(Oc1ccc(Cl)cc1Cl)c1ccccc1 [2,4-Dichlorophenyl benzenesulfonate]",> 90,–
O=C1NCN(c2ccccc2)C12CCN(CC1COc3ccccc3O1)CC2 (stereo not shown) [Spiroxatrine],36.3,–
CO/N=C(\C(=O)N[C@@H]1C(=O)N2C(C(=O)[O-])=C(C[n+]3ccn4ncccc43)CS[C@H]12)c1nsc(N)n1 [Cefozopran hydrochloride],> 50,–
O=S(=O)(O)CC(O)CCl (stereo not shown) [Sodium 3-chloro-2-hydroxypropane-1-sulfonate],> 90,–
"COc1ccc(C2NC(=S)N3C(c4ccc(OC)c(OC)c4)NC(=S)N23)cc1OC (stereo not shown) [3,7-Bis(3,4-dimethoxyphenyl)tetrahydro-1H,5H-[1,2,4]triazolo[1,2-a][1,2,4]triazole-1,5-dithione]",0.208,–
ClC=C(Cl)Cl [Trichloroethylene],> 90,–
"O=C(O)Cc1ccc(Cl)cc1Cl [2,4-Dichlorophenylacetic acid]",> 90,–
"COc1ccc(OC)c(OC)c1 [1,2,4-Trimethoxybenzene]",> 90,–
CC(=O)[C@H]1CC[C@H]2[C@@H]3CC[C@@H]4C[C@H](O)CC[C@]4(C)[C@H]3CC[C@]12C [Eltanolone],–,"CC50 at 24 h (AC50 (uM) modified / 1000, Tox21_110001=Tox21_112042, viability, 1 nM T3 present, 24 h): > 50 µM"
COc1ccc2c3c1O[C@H]1[C@@H](O)C=C[C@H]4[C@@H](C2)N(C)CC[C@@]341 [Codeine hydrochloride],> 90,–
O=C(O)Cc1sc(-c2ccccc2)nc1-c1ccc(Cl)cc1 [Fentiazac],> 50,–
"Nc1cc(O)nc(N)n1 [2,4-Diamino-6-hydroxypyrimidine]",> 50,–
O=C(O)C[C@H](NC(=O)OCc1ccccc1)C(=O)O [N-[(Benzyloxy)carbonyl]-L-aspartic acid],> 90,–
NCCO [2-Hydroxyethylammonium formate],> 90,–
Cc1cc(CC(=O)O)c(C)n1-c1ccc(Cl)cc1 [Clopirac],> 50,–
CC(=O)Oc1cc(C(F)(F)F)ccc1C(=O)O [Triflusal],> 20,–

SMILES,CC50 at 24 h (AC50 (uM) modified / 1000) [µM],other results
CC(=O)OC1C2(C)CCC(C2)C1(C)C (stereo not shown) [Fenchyl acetate],> 90,–
O=C(O)c1ccc(NC(=O)[C@H](Cc2ccc(O)cc2)NC(=O)c2ccccc2)cc1 [Bentiromide sodium],> 50,–
CCCC(=O)O[C@]1(C(=O)COC(C)=O)CC[C@H]2[C@@H]3C[C@H](F)C4=CC(=O)C=C[C@]4(C)[C@@]3(F)[C@@H](O)C[C@@]21C [Difluprednate],> 50,–
"Nc1nnc(-c2ccc([N+](=O)[O-])o2)o1 [2-Amino-5-(5-nitro-2-furyl)-1,3,4-oxadiazole]",59,–
"OCCOc1cccc(OCCO)c1 [2,2'-[Benzene-1,3-diylbis(oxy)]diethanol]",> 90,–
CCCC(=O)OC[C@@H](OC(=O)CCC)[C@@H](OC(=O)CCC)[C@H](Cn1c2nc(=O)[nH]c(=O)c-2nc2cc(C)c(C)cc21)OC(=O)CCC [Riboflavin tetrabutyrate],> 50,–
COc1cc(CCN)cc(OC)c1OC [Mescaline hydrochloride],> 100,–
O=C(O)CCC/C=C\C[C@H]1[C@H](/C=C/[C@H](O)COc2cccc(Cl)c2)[C@@H](O)C[C@H]1O [Cloprostenol sodium],> 50,–
CC(=O)CC(=O)c1ccccc1 [1-Benzoylacetone],> 90,–
C=CCON=C(CCC)C1C(=O)CC(C)(C)C(C(=O)OC)C1=O (stereo not shown) [Alloxydim-sodium],> 90,–
CC[C@@]1(O)C(=O)OCc2c1cc1n(c2=O)Cc2cc3c([N+](=O)[O-])cccc3nc2-1 [Rubitecan],1.34,–
CNC(=O)Oc1ccccc1C(C)C [Isoprocarb],–,"CC50 at 24 h (AC50 (uM) modified / 1000, Tox21_110001=Tox21_301361, viability, 1 nM T3 present, 24 h): > 90 µM"
CC(C)NC(C)C [Diisopropylamine],–,"CC50 at 24 h (AC50 (uM) modified / 1000, Tox21_110001=Tox21_111075, viability, 1 nM T3 present, 24 h): > 50 µM; CC50 at 24 h (AC50 (uM) modified / 1000, Tox21_110001=Tox21_200216, viability, 1 nM T3 present, 24 h): > 90 µM"
C=C[C@@H](C)CCC=C(C)C [(S)-Citronellene],> 90,–
C#C[C@]1(O)CC[C@H]2[C@@H]3[C@H](C)CC4=C(CCC(=O)C4)[C@H]3CC[C@@]21C [Tibolone],51.8,–
CC(=O)O[C@H]1CC[C@@]2(C)C(=CC[C@H]3[C@@H]4CC[C@H](C(C)=O)[C@@]4(C)CC[C@@H]32)C1 [3beta-Acetoxy-5-pregnene-20-one],> 50,–
O=C(O)C(F)(F)C(F)(F)C(F)(F)C(F)(F)C(F)(F)F [Perfluorohexanoic acid],–,"CC50 at 24 h (AC50 (uM) modified / 1000, Tox21_110001=Tox21_300394, viability, 1 nM T3 present, 24 h): > 90 µM"
CSCc1cnccn1 [(Methylthio)methylpyrazine],> 200,–
CC(C)(C)c1ccc(C(=O)O)cc1 [4-tert-Butylbenzoic acid],> 90,–
O=C(O)C1=C(CSc2nnnn2CS(=O)(=O)O)CS[C@@H]2[C@H](NC(=O)[C@H](O)c3ccccc3)C(=O)N12 [Cefonicid sodium],> 50,–
COc1cc(CC(C)N)c(OC)cc1Br (stereo not shown) [Brolamfetamine hydrobromide],–,"CC50 at 24 h (AC50 (uM) modified / 1000, Tox21_110001=Tox21_113494, viability, 1 nM T3 present, 24 h): 25.6 µM"
COC(=O)NCCC[Si](OC)(OC)OC [Methyl [3-(trimethoxysilyl)propyl]carbamate],> 90,–

SMILES,CC50 at 24 h (AC50 (uM) modified / 1000) [µM],other results
"C=C(C)c1cccc(C(=C)C)c1 [1,3-Diisopropenylbenzene]",> 90,–
CN1CCC(=C2c3ccccc3CC(=O)c3sccc32)CC1 [Ketotifen],16,–
NC[C@@H]1O[C@H](O[C@H]2[C@@H](O)[C@H](O[C@@H]3[C@@H](O)[C@H](N)C[C@H](N)[C@H]3O[C@H]3O[C@H](CN)[C@@H](O)[C@H](O)[C@H]3N)O[C@@H]2CO)[C@H](N)[C@@H](O)[C@@H]1O [Neomycin sulfate],> 50,–
CC(C)(C)C(=O)Oc1ccc(S(=O)(=O)Nc2ccccc2C(=O)NCC(=O)O)cc1 [Sivelestat sodium tetrahydrate],> 50,–
CCCCCN(C)CCC(O)(P(=O)(O)O)P(=O)(O)O [Ibandronate sodium],> 50,–
CCC(C(=O)OCCOCCN(CC)CC)c1ccccc1 (stereo not shown) [Butamirate citrate],> 50,–
O=C(O)[C@H](CC(=O)N1C[C@H]2CCCC[C@H]2C1)Cc1ccccc1 [Mitiglinide calcium dihydrate],> 50,–
FC1(F)C(F)(F)C(F)(F)C2(F)C(F)(C1(F)F)C(F)(F)C(F)(F)C1(F)C(F)(F)C(F)(F)C(F)(F)C(F)(F)C12F (stereo not shown) [Tetracosafluorotetradecahydrophenanthrene],> 80,–
C[N+]1(CCF)[C@@H]2CC[C@H]1CC(OC(=O)C(O)(c1ccccc1)c1ccccc1)C2 (stereo partly shown) [Flutropium bromide],> 50,–
Cc1cccc(C)c1NC(=O)CN(CC(=O)O)CC(=O)O [Lidofenin],> 50,–
c1ccc2scnc2c1 [Benzothiazole],> 90,–
NCC(O)c1cccc(O)c1 (stereo not shown) [Norfenefrine hydrochloride],> 50,–
CCCCC(=O)O[C@]1(C(=O)CO)[C@@H](C)C[C@H]2[C@@H]3CCC4=CC(=O)C=C[C@]4(C)[C@@]3(F)[C@@H](O)C[C@@]21C [Betamethasone valerate],77.9,–
CO[C@@H]1[C@@H](OC)[C@H](C)[C@@](O)(CC(=O)O)O[C@H]1[C@H](C)[C@H]1O[C@@]2(CC[C@@](C)([C@H]3CC[C@@](C)([C@@H]4O[C@@H]([C@H]5O[C@](C)(O)[C@H](C)C[C@@H]5C)C[C@@H]4O[C@@H]4C[C@H](OC)[C@@H](OC)[C@H](C)O4)O3)O2)C[C@H](O)[C@H]1C [Maduramicin ammonium],0.49,–
COC(=O)CCCCC(=O)OC [Dimethyl adipate],> 90,–
O=C=Nc1ccc(Cl)cc1 [4-Chlorophenyl isocyanate],> 90,–
CCCCCCC/C=C/C=O [(2E)-2-Decenal],> 90,–
C1CCOC1 [Tetrahydrofuran],> 100,–
CCCCOC(=O)CCC(C)=O [Butyl 4-oxopentanoate],> 90,–
CC#N [Acetonitrile],> 90,–
O=C(NC(=O)c1c(F)cccc1F)Nc1cc(Cl)c(F)c(Cl)c1F [Teflubenzuron],> 80,–
CCCCCCCCCC(C)C=O (stereo not shown) [2-Methylundecanal],> 90,–
